Source: US9981989B2, “Ataxia telengiectasia and Rad3-related (ATR) protein kinase inhibitors” (Atrin Pharmaceuticals LLC, priority 2014, dated 2018)

Columns and labels:
[1] = tested on: Jurkat cells; assay: Phenotypical evaluation of ATR inhibition: S-phase arrest of Jurkat cells under aphidicolin replication stress, flow cytometry; assay type: cell-based, human; conditions: 0.2 μM aphidicolin, 24 hours
Description: It is known that inhibition of ATR in cells under replicative stress stalls DNA replication, which prevents cells from progressing through S-phase, leading to an accumulation of cells in this cell cycle phase (Kevin D. Smith, et al., Tim-Tipin dysfunction creates an indispensable reliance on the ATR-Chk1 pathway for continued DNA synthesis, J. Cell Biol. 2009, 187, 15-23). In the present experiment Jurkat cells were treated with 0.2 μM aphidicolin to induce replication stress in the presence of test compounds, at concentrations ranging from 10 μM to 0.1 μM, for 24 hours. Cells were fixed and cell-cycle profiles examined by flow cytometry as in Smith, J. Cell Bio. 2009. Test compounds were considered active if stalling of the cells in S-phase was observed.

[2] = molecular target: T1, ATR (Homo sapiens, UniProt Q13535); assay: ATR cellular kinase activity: Chk1 and H2AX phosphorylation in HCT119 WT BCL/XL-GFP cells with aphidicolin, western blot; assay type: cell-based; conditions: 5 μM aphidicolin, 4 hours
T1 construct: endogenous in cells; host or cells: HCT119 WT BCL/XL-GFP cells
T1 sequence (Q13535 whole entry): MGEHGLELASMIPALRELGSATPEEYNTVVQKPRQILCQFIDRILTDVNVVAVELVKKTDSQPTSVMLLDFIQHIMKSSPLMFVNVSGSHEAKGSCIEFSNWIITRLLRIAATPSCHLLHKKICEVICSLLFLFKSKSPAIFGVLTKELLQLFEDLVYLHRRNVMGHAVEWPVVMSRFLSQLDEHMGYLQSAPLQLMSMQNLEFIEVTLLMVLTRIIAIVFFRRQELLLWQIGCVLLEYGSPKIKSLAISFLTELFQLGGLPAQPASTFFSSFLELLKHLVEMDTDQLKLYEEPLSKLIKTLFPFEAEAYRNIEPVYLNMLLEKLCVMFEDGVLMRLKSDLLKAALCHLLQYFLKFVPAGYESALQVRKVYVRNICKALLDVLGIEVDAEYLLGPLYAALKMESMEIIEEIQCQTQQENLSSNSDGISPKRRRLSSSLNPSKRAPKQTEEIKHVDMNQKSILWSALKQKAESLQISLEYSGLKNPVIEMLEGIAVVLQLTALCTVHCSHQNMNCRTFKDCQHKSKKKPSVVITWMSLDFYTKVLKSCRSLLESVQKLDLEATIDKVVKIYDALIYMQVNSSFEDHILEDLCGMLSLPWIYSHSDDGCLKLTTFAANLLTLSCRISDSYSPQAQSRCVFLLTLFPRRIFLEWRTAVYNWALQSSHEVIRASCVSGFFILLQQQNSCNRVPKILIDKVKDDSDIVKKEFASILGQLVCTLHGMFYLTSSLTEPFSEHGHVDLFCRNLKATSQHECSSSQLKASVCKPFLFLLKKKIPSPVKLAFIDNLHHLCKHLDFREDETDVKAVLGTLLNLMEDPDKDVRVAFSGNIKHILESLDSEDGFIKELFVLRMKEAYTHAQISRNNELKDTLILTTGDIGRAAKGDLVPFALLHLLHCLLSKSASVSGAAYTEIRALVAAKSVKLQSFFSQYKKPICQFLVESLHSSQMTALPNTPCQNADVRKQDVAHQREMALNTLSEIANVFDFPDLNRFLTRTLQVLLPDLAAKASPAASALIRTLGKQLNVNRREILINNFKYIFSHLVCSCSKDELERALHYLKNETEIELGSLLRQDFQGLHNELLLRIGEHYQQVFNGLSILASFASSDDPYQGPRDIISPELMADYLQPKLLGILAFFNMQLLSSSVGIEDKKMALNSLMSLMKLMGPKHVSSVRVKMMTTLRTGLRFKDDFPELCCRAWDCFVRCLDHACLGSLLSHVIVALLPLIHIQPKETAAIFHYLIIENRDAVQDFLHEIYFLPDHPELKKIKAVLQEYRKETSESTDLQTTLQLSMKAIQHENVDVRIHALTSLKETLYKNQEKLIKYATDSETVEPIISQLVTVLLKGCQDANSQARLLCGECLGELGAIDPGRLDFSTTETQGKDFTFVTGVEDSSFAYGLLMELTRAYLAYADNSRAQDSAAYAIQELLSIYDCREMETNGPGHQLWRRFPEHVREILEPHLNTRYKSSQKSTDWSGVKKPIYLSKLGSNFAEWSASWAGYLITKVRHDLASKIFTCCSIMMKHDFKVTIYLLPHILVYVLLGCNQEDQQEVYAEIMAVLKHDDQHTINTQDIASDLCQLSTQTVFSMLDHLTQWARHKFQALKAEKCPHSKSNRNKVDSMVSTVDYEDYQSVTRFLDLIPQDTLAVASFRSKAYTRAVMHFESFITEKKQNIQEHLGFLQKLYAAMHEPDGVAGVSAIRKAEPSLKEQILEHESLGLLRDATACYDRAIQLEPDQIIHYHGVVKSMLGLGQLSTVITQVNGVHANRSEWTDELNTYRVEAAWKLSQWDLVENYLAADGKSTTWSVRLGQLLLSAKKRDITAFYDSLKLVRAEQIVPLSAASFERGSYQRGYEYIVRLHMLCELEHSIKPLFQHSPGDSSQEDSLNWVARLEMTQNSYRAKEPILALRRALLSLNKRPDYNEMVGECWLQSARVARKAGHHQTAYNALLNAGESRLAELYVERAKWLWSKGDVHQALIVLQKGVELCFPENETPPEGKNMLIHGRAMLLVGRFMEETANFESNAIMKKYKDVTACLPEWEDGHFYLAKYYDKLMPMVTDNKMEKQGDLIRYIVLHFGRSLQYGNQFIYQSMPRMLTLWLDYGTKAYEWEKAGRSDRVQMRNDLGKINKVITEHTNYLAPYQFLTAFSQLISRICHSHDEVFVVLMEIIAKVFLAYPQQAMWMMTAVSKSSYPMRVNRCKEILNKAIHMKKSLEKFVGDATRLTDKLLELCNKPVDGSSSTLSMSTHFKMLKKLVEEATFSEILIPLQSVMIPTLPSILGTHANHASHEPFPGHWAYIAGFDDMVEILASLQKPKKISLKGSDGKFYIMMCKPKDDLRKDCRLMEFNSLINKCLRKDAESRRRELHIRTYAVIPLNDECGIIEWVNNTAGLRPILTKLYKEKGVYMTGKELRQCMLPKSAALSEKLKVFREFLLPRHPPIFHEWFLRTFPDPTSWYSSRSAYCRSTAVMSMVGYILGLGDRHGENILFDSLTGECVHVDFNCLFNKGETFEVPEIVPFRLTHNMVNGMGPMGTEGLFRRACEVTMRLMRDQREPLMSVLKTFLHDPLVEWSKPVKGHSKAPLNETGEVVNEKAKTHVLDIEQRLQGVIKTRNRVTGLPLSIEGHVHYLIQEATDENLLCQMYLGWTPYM
T1 sequence (Q8WXE1 whole entry partner): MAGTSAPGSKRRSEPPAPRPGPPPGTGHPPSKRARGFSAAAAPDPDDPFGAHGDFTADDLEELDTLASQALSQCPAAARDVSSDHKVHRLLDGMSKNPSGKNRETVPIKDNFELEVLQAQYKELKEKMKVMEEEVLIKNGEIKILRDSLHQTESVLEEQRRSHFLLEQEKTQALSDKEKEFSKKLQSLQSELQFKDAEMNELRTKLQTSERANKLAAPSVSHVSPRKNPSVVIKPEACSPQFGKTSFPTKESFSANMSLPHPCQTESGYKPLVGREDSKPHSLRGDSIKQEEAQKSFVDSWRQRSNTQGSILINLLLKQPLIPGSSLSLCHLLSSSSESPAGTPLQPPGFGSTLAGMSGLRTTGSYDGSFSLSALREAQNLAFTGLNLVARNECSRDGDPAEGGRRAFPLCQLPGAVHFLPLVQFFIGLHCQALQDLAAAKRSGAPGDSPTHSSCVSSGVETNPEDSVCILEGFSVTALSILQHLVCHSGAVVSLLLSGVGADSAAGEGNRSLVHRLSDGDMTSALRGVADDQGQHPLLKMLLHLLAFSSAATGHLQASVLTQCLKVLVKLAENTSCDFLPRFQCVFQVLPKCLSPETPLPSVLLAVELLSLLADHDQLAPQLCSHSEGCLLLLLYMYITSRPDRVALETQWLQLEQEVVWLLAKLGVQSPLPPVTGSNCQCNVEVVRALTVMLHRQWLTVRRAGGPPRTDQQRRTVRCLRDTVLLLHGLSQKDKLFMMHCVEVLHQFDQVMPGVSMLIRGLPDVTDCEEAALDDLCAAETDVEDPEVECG
Description: (§1) Chk1 phosphorylation, ATR's primary downstream target, is used as a read-out for ATR activity (Liu Q. et al., Chk1 is an essential kinase that is regulated by Atr and required for the G(2)/M DNA damage checkpoint, Genes Dev. 2000, Jun. 15, 14(12), 1448-1459; and (Jia Li and David F. Stern, Regulation of CHK2 by DNA-dependent Protein Kinase, J Biol. Chem. 2005, 280, 12041-12050). Chk2 phosphorylation (stimulated by 5 Gy irradiation), is a marker of ATM and DNA-PKcs activity, which together with ATR are closely related DNA-damage responsive PIKK family kinases (Shuhei Matsuoka et al., Ataxia telangiectasia-mutated phosphorylates Chk2 in vivo and in vitro, Proceedings of the National Academy of Sciences of the USA, 2000, 97(19), 10389-10394; Li J and Stern D F, Regulation of CHK2 by DNA-dependent protein kinase. The Journal of biological chemistry, 2005, 280, 12041-12050).
HCT119 WT BCL/XL-GFP cells were incubated with decreasing concentrations of test compounds (10-0.003 μM) and 5 μM aphidicolin for 4 hours prior to lysis. Cell lysis and western blotting were performed as in Gilad, Cancer Res, 2010, using the following antibodies as per manufacturers' instructions: pCHK1 (Ser345) (Cell signaling 133D3), pH2AX (S139) (Millipore 05636), GAPDH (loading control, Chemicon MAB374), and MCM3 (loading control, Santa Cruz sc-9850). Test compounds were considered active if significant inhibition of Chk1 phosphorylation was observed.

[3] = tested on: Chk2 phosphorylation; assay: ATR kinase selectivity: Chk2 phosphorylation in HCT119 WT BCL/XL-GFP cells after 5 Gy irradiation, western blot; assay type: cell-based, human; conditions: 5-0.01 μM compound, stimulated by 5 Gy irradiation, pChk2 (T68) (FIG. 4C)
Description: as §1
HCT119 WT BCL/XL-GFP cells were incubated with decreasing concentrations of test compounds (5-0.01 μM) alone for 30 minutes followed by 5 Gy irradiation and cell lysis 20 minutes post irradiation. Cell lysis and western blotting were performed as in Gilad, Cancer Res, 2010, using the following antibodies as per manufacturers' instructions: pChk2 (T68) (Cell Signaling 2661S), GAPDH (loading control, Chemicon MAB374), and MCM3 (loading control, Santa Cruz sc-9850).

[4] = 1.25 μM compound, Jurkat cells (FIGS. 3A, 3B)

Row | concentration at which Chk1 phosphorylation is completely inhibited ([2]; pCHK1 (Ser345) (FIG. 4B)) | lowest dose able to limit phosphorylation of Chk1 ([2]; pCHK1 (Ser345) (FIG. 4B)) | H2AX phosphorylation (DNA double strand breaks) ([2]; pH2AX (S139) (FIG. 4B)) | SMILES | inhibition of cell cycle progression by accumulation of cells in S-phase [1, 4] | inhibition of cell cycle progression by accumulation of cells in S-phase ([1]; 2.5 μM compound, Jurkat cells (FIG. 2)) | inhibition of cell cycle progression by accumulation of cells in S-phase ([1]; 10 μM compound, Jurkat cells (FIG. 1)) | levels of Chk2 phosphorylation [3]
1 | – | – | – | CNS(=O)(=O)c1ccc(-c2cnc(N)c(C(=O)Nc3ccccc3OCCOCCOCCO)n2)cc1 [IM11, 3-amino-N-(2-(2-(2-(2-hydroxyethoxy)ethoxy)ethoxy)phenyl)-6-(4-(N-methylsulfamoyl)phenyl)pyrazine-2-carboxamide] | inactive | – | – | –
2 | – | – | – | CN1CCOCCOCCOc2ccccc2NC(=O)c2nc(cnc2N)-c2ccc(cc2)S1(=O)=O [P(1)] | significant inhibition of cell cycle progression | significant inhibition of cell cycle progression | significant inhibition of cell cycle progression | –
3 | ≥ 1 μLM | 30 nM | increased H2AX phosphorylation | CNCc1cccc2c1OCCOCCOCCN(C)S(=O)(=O)c1ccc(cc1)-c1cnc(N)c(n1)C(=O)N2 [P(4)] | – | – | – | did not affect
